Assays:
[1] = test system: testosterone, LH, oestradiol, FSH levels; conditions: cited from earlier work
[2] = test system: free testosterone concentration; conditions: after 24 weeks of daily 150 mg CASODEX alone; prostate cancer; cited from earlier work
total testosterone = conditions: bicalutamide single agent therapy, humans; cited from earlier work

## CC/C(=C(\c1ccccc1)c1ccc(OCCN(C)C)cc1)c1ccccc1 [tamoxifen]
[1]; 13 normal men, 6 week period (Spijkstra et al)
  Effect on mean serum testosterone, oestradiol, LH levels, LH pulse frequency and amplitude: An increase
[1]; administration to men (Lewis-Jones et al)
  Effect on basal serum levels of LH, oestradiol and testosterone: elevates the basal serum levels
[1]; intake in adult men (Comhaire et al)
  Effect on testosterone and LH: increase testosterone and LH
[1]; three months' treatment, normogonadotrophic oligozoospermic men (van Bergeijk et al)
  Effect on basal LH, FSH and testosterone levels: stimulated basal LH, FSH and testosterone levels

## CC(O)(CS(=O)(=O)c1ccc(F)cc1)C(=O)Nc1ccc(C#N)c(C(F)(F)F)c1 (stereo not drawn) [CASODEX, 4′-cyano-α′,α′, α′-trifluoro-3-(4-fluorophenylsulphonyl)-2-hydroxy-2-methylpropiono-m-toluidide]
Free testosterone levels; CASODEX alone, end of the treatment period (4 weeks)
  Increase in mean free testosterone concentration: 58%
Free testosterone levels; Day 29, CASODEX 150 mg daily alone
  Free testosterone, ratio to Day 1: 1.58
Free testosterone levels; Day 29, CASODEX 150 mg daily alone (up to week 4), n=7
  Free testosterone concentration, gmean: 0.076 nmol/1
[2]
  Increase in mean free testosterone concentration: 57%
Total testosterone
  Change in basal level of total testosterone: approximate doubling

— patent publication US20030114519A1, “Pharmaceutical combination of bicalutamide and anastrozole for providing an anti-androgenic effect and aromatase inhibition” (priority 2002, published 2003)
